How the values were obtained:
Type in all cases: in vivo, human
[1] = test system: person two with long-standing TD; test: Finger Tapping (Case 1); details: ON drug, higher score better
Description: (§1) The following tables report on the results of the neuropsychological tests (Drug I is memantine and Drug II is acamprosate): […]

[2] = test system: person two with long-standing TD; test: Grip Strength (Case 1); details: ON drug, higher score better
Description: as §1

[3] = test system: person with extremely severe tardive dyskinesia and dystonia; test: Case Report 4: patient self-report of TD treatment effects (weekly log); details: for Memory: Memory and concentration / Well-being: General well being: 10 is best; for Side effects: 10 is none; for Balance: Difficulty maintaining balance / Face/tongue: Severity of face and tongue movements / Sweating / Trunk: Severity of trunk movements: 10 is worst
Description: A person had extremely severe tardive dyskinesia and dystonia, as a result of over 15 years of treatment of bipolar disorder with lithium and an assortment of neuroleptics. Their involuntary movements consisted of forced extension of the trunk, torsion of the lower legs, plantar flexion of the left foot, chorea of both arms, writhing of the tongue and grimacing. In addition, they had profuse sweating associated with the involuntary movements. To sit still in a chair, they had to forcefully grip both arms. In the chair, forced extension of the trunk practically lifted them out of the chair. Their trunk and leg movements led to impaired balance, with a staggering gait and frequent near-falls. The continual severe movements were associated with impairment in concentration, which made their work less efficient. By virtue of talent and intelligence, however, they were able to work competitively as a software engineer. Because their bipolar disorder remained an active problem, continued neurolepric treatment was necessary to maintain their mental health. They were maintained on lithium carbonate 300 mg three times a day, and risperidone 4 mg per day.
Their movement disorder had been treated with benzodiazepines, anticholinergics, and dopamine agonists, all without meaningful benefit. They were then treated with acamprosate, first at a dosage of 333 mg three times a day, and then at a dosage of 666 mg three times a day. Acamprosate therapy was then augmented with magnesium sulfate, 300 mg three times a day.
The patient maintained a weekly log of symptoms, which is reproduced here as Table 4. […] For several of their symptoms—trunk movement, balance, and sweating 666 mg of acamprosate three times a day of acamprosate was more efficacious than 333 mg three • 2) The addition of magnesium was associated with further improvement in several symptoms, i.e., movements of the face and tongue, neck and limbs; • 3) Benefits of acamprosate increased with continued therapy; • 4) Mental function, as indicated by subjective memory, improved along with the involuntary movements; • 5) The addition of memantine aggravated the involuntary movements.

[4] = test system: patients with dyskinetic movements (TD, tics); test: Inventor's overall clinical experience, cases 1-6
Description: The ratio of acamprosate to magnesium can be varied to optimize the therapeutic synergy of the two ingredients. […] At typical therapeutic dosages of acetylhomotaurinate, the amount of magnesium is too low to have therapeutically-relevant effects on glutamate transmission. In my experience, I have had excellent therapeutic results from combining a 2 gram daily dosage of acamprosate with 1 gram of elemental magnesium, given as a salt or chelate. […] Allowing for variations in individual response, and variations in the intestinal absorption of both acamprosate and magnesium, I assert that the optimal ratio of mg:acetylhomotaurinate for an individual patient will be somewhere between 1:6 and 1:1. […] Although magnesium N-acetylhomotaurinate may be slightly more efficacious than calcium N-acetylhomotaurinate for treatment of tic disorders, in the present application we are effectively increasing the magnesium content of acamprosate and related compounds by administering magnesium ion (as a salt or chelate) in combination with a salt of N-acetylhomotaurinate, because there is a significant benefit to administering a higher ratio of magnesium to acamprosate than is present in the magnesium salt of acamprosate.
Relief of symptoms began within 48 hours of administration of acamprosate, and, if a patient discontinued acamprosate, symptoms returned immediately. […]

[5] = week 1, regimen 1: 333 mg three times a day
[6] = week 2, regimen 2: 666 mg three times a day

## CC12CC3CC(C)(C1)CC(N)(C3)C2 [memantine]
[1]
  Finger Tapping DH: DH = 59.3
  Finger Tapping NDH: NDH = 48.5
[2]
  Grip Strength DH: DH = 17.7
  Grip Strength NDH: NDH = 21.7

## CC(=O)NCCCS(=O)(=O)O [acamprosate, calcium N-acetylhomotaurinate]
[3]; [5]
  Limbs: 6
  Neck: 7
  Memory: Memory and concentration: 9
  Well-being: General well being: 8
  Side effects: 7
  Balance: Difficulty maintaining balance: 7
  Face/tongue: Severity of face and tongue movements: 5
  Sweating: 8
  Trunk: Severity of trunk movements: 8
[3]; [6]
  Limbs: 7
  Neck: 7
  Memory: Memory and concentration: 9
  Well-being: General well being: 8
  Side effects: 7
  Balance: Difficulty maintaining balance: 5
  Face/tongue: Severity of face and tongue movements: 7
  Sweating: 5
  Trunk: Severity of trunk movements: 6
[4]
  time to beginning of relief of symptoms: ≤ 48 h

Source: patent US7745493B2, “Methods of treating tardive dyskinesia and other movement disorders” (priority 1998, dated 2010)
